Reference: article PMC7113753 (Antiviral Research, 2018)
Entries after “also recorded” stand apart in the source; their conditions may differ. Like-named read-outs stand apart in the source and are kept apart here.

Experiments:
PEDV PL2^pro [1] = target: T1, PEDV PL2^pro (Porcine epidemic diarrhea virus, UniProt V5W8W2); assay: biochemical; assay type: biochemical
PEDV PL2^pro [2] = target: T1, PEDV PL2^pro; assay type: biochemical
human USP2 = settings: cited from earlier work

Sc1ncnc2nc[nH]c12 [6MP, 6-mercaptopurine]
IC50 (PEDV PL2^pro [1]): 58.1 ± 5.7 µM

Nc1nc2nc[nH]c2c(=S)[nH]1 [6TG, 6-thioguanine]
IC50 of 6TG fold lower than that of 6MP (PEDV PL2^pro [1]): 4.2 fold | pattern of inhibition (PEDV PL2^pro [2]): noncompetitive inhibitor; also recorded: noncompetitive pattern of inhibition | pattern of inhibition (human USP2): noncompetitive inhibitory effect

CCN(CC)C(=S)SSC(=S)N(CC)CC [Disulfiram]
IC50 (PEDV PL2^pro [1]): > 100 µM

O=C(O)CN(CCN(CC(=O)O)CC(=O)O)CC(=O)O [EDTA]
inhibition of DUB activity by EDTA (in words) (PEDV PL2^pro [1]): dose-dependent pattern

Cc1ccc(N)cc1C(=O)N[C@H](C)c1cccc2ccccc12 [GRL0617]
IC50 (PEDV PL2^pro [1]; read-out: IC50 (DUB activity), pH 6.5): > 100 µM

O=c1[nH]cnc2nc[nH]c12 [Hypoxanthine]
IC50 (PEDV PL2^pro [1]): > 200 µM | inhibitory activity (in words) (PEDV PL2^pro [1]): devoid of inhibitory activity

COc1c(C)c2c(c(O)c1C/C=C(\C)CCC(=O)O)C(=O)OC2 [Mycophenolic acid]
IC50 (PEDV PL2^pro [1]): > 200 µM

zinc ions
inhibition of DUB activity by external zinc ions (in words) (PEDV PL2^pro [1]): can be inhibited
